According to patent publication US20160324962A1, “COMPOSITIONS AND METHODS FOR TREATING SARCOMA” (MEDIMMUNE, LLC, priority 2013, published 2016):

Assays:
[1] = test system: RD-ES (Ewing's sarcoma) xenografts; assay: Xenograft efficacy study in mice; format: in vivo; settings: RD-ES xenograft model
Text: Although proliferation of SK-ES-1 and SJCRH30 cells was inhibited by MEDI-573 in vitro in the absence of exogenous IGFs, the in vivo growth of these two models was not effected by MEDI-573 treatment.
The combination treatments were tolerated as no significant body weight loss was observed (FIG. 17B).
For in vivo efficacy studies, five million sarcoma cells in 50% matrigel were inoculated subcutaneously into each female athymic nude mice. When tumors reach approximately 150-200 mm^3, mice were randomly assigned into groups (10 mice per group). MEDI-573 was administrated intraperitoneally twice per week at indicated doses. The dose regimen for AZD2014 was oral once every day, for rapamycin was intraperitoneal injection every 3 days. Tumor volumes were measured twice weekly with calipers. Tumor growth inhibition was calculated on the last day of study relative to the initial and final mean tumor volume of the control group.

RD-ES cells = assay: Cytotoxicity assay, MEDI-573 and mTOR inhibitors; format: cell-based; settings: agents alone or in combination (FIG. 14)
pS6K = assay: Immunoblot of cell lysates after MEDI-573, mTORi, combination; format: cell-based
Method: (§1) To examine the effect of MEDI-573, mTORi, and combination of both on IGF signaling, RD-ES, SJSA-1, and KHOS cells were treated with these agents for 4 hours. After separation of the cell lysates by gel electrophoresis, the proteins were detected by immunoblotting.

p4EBP1 = assay: as above; format: cell-based; settings: single agent, 4 hours
Method: as §1

pAKT = assay: as above; format: cell-based; settings: all 3 cell lines, 4 hours
Method: as §1

## CNC(=O)c1cccc(-c2ccc3c(N4CCOC[C@@H]4C)nc(N4CCOC[C@@H]4C)nc3n2)c1 [AZD2014]
[1]; AZD2014 combination study (FIG. 16A)
  tumor growth inhibition: 51%
RD-ES cells
  decrease in cell viability: 55%
pS6K; RD-ES cells
  phosphorylation of pS6K: inhibited phosphorylation of pS6K
pS6K; SJSA-1 or KHOS cells
  phosphorylation of pS6K: did not inhibit phosphorylation of pS6K

## CO[C@H]1C[C@@H]2CC[C@@H](C)[C@@](O)(O2)C(=O)C(=O)N2CCCC[C@H]2C(=O)O[C@H]([C@H](C)C[C@@H]2CC[C@@H](O)[C@H](OC)C2)CC(=O)[C@H](C)/C=C(\C)[C@@H](O)[C@@H](OC)C(=O)[C@H](C)C[C@H](C)/C=C/C=C/C=C/1C [rapamycin]
[1]; rapamycin combination study (FIG. 17A)
  tumor growth inhibition: 44%
RD-ES cells
  decrease in cell viability: 34%
p4EBP1
  phosphorylation of 4EBP1: did not have effect
pAKT
  phosphorylation of AKT: induced phosphorylation of AKT
pS6K; all 3 cell lines (RD-ES, SJSA-1, KHOS), 4 hours
  pS6K: completely inhibited pS6K
